Reference: patent publication US7671027B2, “Use of GnRH agonists to support the luteal phase during infertility treatment” (PregLem S.A., priority 2002, dated 2010)
Like-named read-outs stand apart in the source and are kept apart here. Square brackets hold non-standard residues; d marks the D form. pGlu = O=C1CC[C@@H](C(=O)O)N1

Key:
[1] = system: patients in ART treatments; details: cited from earlier work
[2] = system: patients (hypothalamic amenorrhea); details: nasal administration every 4 hours after IV GnRH induction of ovulation; in half of the patients; cited from earlier work
[3] = system: patients suffering from unexplained infertility, mild to moderate endometrioisis or partner sperm alteration; test: Dose finding study: luteal phase duration and pregnancy outcome after ovarian stimulation and IUI; type: in vivo; details: for Positive pregnancy test: patients positive/total, day 14 of luteal phase; for Clinical pregnancy: patients/total
Excerpt: (§1) Patients suffering from unexplained infertility, or from infertility resulting from mild to moderate endometrioisis, or an infertility resulting from a mild or moderate alteration of their partner sperm, and whom have not conceived despite regular sexual intercourses during a period of one or two years, usually undergo medical assistance. The most often used treatment is ovarian stimulation coupled to an IUI (Hughes G. H. 1997, The effectiveness of ovulation induction and intra-uterine insemination in the treatment of persistent infertility: a meta-analysis. Hum Reprod. 12: 1865-1872).
(§2) A prospective, randomised, parallel groups dose finding study was conducted in this patient population.
(§3) The number and the size of each follicle was recorded.
(§4) Between 12 and 48 hours after triggering ovulation, the patient's partner provided a sperm sample, after 2 to 5 days of abstinence. Motile sperm cells were separated from seminal fluid, dead sperm cells, leucocytes, and cellular debris using a suitable method such as a “swim-up” or a Percol gradient. On that same day, the motile sperm cell suspension was used to perform an intra-uterine insemination with a catheter inserted into the uterine cavity via the cervix. The procedure may be repeated on the next day.

[4] = system: patients who did not conceive; test: Dose finding study: luteal phase serum oestradiol levels; type: in vivo, human
Excerpt: as §1, §2, §3, §4

[5] = system: patients who did not conceive; test: Dose finding study: luteal phase serum progesterone levels; type: in vivo, human
Excerpt: as §1, §2, §3, §4

[6] = Day 0, buserelin 100 μg/2 days IN
[7] = Day 0, buserelin 100 μg/3 days IN
[8] = Day 1, buserelin 100 μg/2 days IN
[9] = Day 1, buserelin 100 μg/3 days IN
[10] = Day 4, buserelin 100 μg/2 days IN
[11] = Day 4, buserelin 100 μg/3 days IN
[12] = Day 7, buserelin 100 μg/2 days IN
[13] = Day 7, buserelin 100 μg/3 days IN
[14] = Day 9, buserelin 100 μg/2 days IN
[15] = Day 9, buserelin 100 μg/3 days IN
[16] = Day 11, buserelin 100 μg/2 days IN
[17] = Day 11, buserelin 100 μg/3 days IN
[18] = Day 11, buserelin 100 μg/day IN
[19] = Day 14, buserelin 100 μg/2 days IN
[20] = Day 14, buserelin 100 μg/3 days IN
[21] = Day 14, buserelin 100 μg/day IN

CC(=O)[C@H]1CC[C@H]2[C@@H]3CCC4=CC(=O)CC[C@]4(C)[C@H]3CC[C@]12C [progesterone]
relative efficacy of IM progesterone vs vaginal progesterone ([1]; C.I. of 1.02-1.75, in favor of the IM route (p<0.05)): 1.33
odds to obtain a pregnancy compared to no luteal support ([1]; progesterone IM, CI: 1.36-4.27, p<0.05): 2.38
odds to obtain a pregnancy compared to no luteal support ([1]; vaginal route, C.I. of 0.95-4.67 (NS)): 2.11

<Glu^1-His^2-Trp^3-Ser^4-Tyr^5-His^6-Leu^7-Arg^8-Pro^9-Gly^10-NH2 (SEQ ID NO: 1) ([pGlu]HWSYHLRPG-NH2; SMILES CC(C)C[C@H](NC(=O)[C@H](Cc1c[nH]cn1)NC(=O)[C@H](Cc1ccc(O)cc1)NC(=O)[C@H](CO)NC(=O)[C@H](Cc1c[nH]c2ccccc12)NC(=O)[C@H](Cc1c[nH]cn1)NC(=O)[C@@H]1CCC(=O)N1)C(=O)N[C@@H](CCCNC(=N)N)C(=O)N1CCC[C@H]1C(=O)NCC(N)=O; listed as Homo sapiens) [native GnRH, synthetic, native GnRH decapeptide]
support of the luteal phase [2]: completely ineffective

CCNC(=O)[C@@H]1CCCN1C(=O)[C@H](CCCNC(=N)N)NC(=O)[C@H](CC(C)C)NC(=O)[C@@H](COC(C)(C)C)NC(=O)[C@H](Cc1ccc(O)cc1)NC(=O)[C@H](CO)NC(=O)[C@H](Cc1c[nH]c2ccccc12)NC(=O)[C@H](Cc1cnc[nH]1)NC(=O)[C@@H]1CCC(=O)N1 [Buserelin, <Glu^1-His^2-Trp^3-Ser^4-Tyr^5-D-Ser(t-But)^6-Leu^7-Arg^8-Pro^9-EA (SEQ ID NO: 2)]
luteal support, summary of tables 1-3 ([3]; buserelin 100 μg IN once a day for 14 days, compared with the other groups): a longer luteal phase, higher progesterone and oestradiol levels in late luteal phase and a trend toward a higher clinical pregnancy rate
Positive pregnancy test ([3]; buserelin 100 μg/2 days IN): 2/6
Clinical pregnancy ([3]; buserelin 100 μg/2 days IN): 1/6
Positive pregnancy test ([3]; buserelin 100 μg/3 days IN): 1/5
Clinical pregnancy ([3]; buserelin 100 μg/3 days IN): 0/5
Positive pregnancy test ([3]; buserelin 100 μg/day IN): 2/6
Clinical pregnancy ([3]; buserelin 100 μg/day IN): 2/6
Luteal phase duration (mean ± SD) ([3]; buserelin 200 μg IN trigger, then 100 μg/day IN for 14 days, n=6): 15.3 ± 0.5 days
adverse local reactions of intra-nasal administration ([3]; self-administered intra-nasal buserelin 100 μg): did not carry the risk of adverse local reactions such as pain and abces
Luteal phase serum oestradiol level (mean ± SD) [4, 6]: 247 ± 79 pg/mL
Luteal phase serum oestradiol level (mean ± SD) [4, 7]: 182 ± 76 pg/mL
Luteal phase serum oestradiol level (mean ± SD) ([4]; Day 0, buserelin 100 μg/day IN): 175 ± 071 pg/mL
Luteal phase serum oestradiol level (mean ± SD) [4, 8]: 164 ± 75 pg/mL
Luteal phase serum oestradiol level (mean ± SD) [4, 9]: 325 ± 160 pg/mL
Luteal phase serum oestradiol level (mean ± SD) [4, 10]: 139 ± 77 pg/mL
Luteal phase serum oestradiol level (mean ± SD) [4, 11]: 106 ± 61 pg/mL
Luteal phase serum oestradiol level (mean ± SD) ([4]; Day 4, buserelin 100 μg/day IN): 179 ± 101 pg/mL
Luteal phase serum oestradiol level (mean ± SD) [4, 12]: 70 ± 19 pg/mL
Luteal phase serum oestradiol level (mean ± SD) [4, 13]: 144 ± 118 pg/mL
Luteal phase serum oestradiol level (mean ± SD) ([4]; Day 7, buserelin 100 μg/day IN): 163 ± 30 pg/mL
Luteal phase serum oestradiol level (mean ± SD) [4, 14]: 65 ± 15 pg/mL
Luteal phase serum oestradiol level (mean ± SD) [4, 15]: 109 ± 88 pg/mL
Luteal phase serum oestradiol level (mean ± SD) ([4]; Day 9, buserelin 100 μg/day IN): 232 ± 77 pg/mL
Luteal phase serum oestradiol level (mean ± SD) [4, 16]: 75 ± 4 pg/mL
Luteal phase serum oestradiol level (mean ± SD) [4, 17]: 123 ± 61 pg/mL
Luteal phase serum oestradiol level (mean ± SD) [4, 18]: 200 ± 30 pg/mL
Luteal phase serum oestradiol level (mean ± SD) [4, 19]: 124 ± 68 pg/mL
Luteal phase serum oestradiol level (mean ± SD) [4, 20]: 82 ± 31 pg/mL
Luteal phase serum oestradiol level (mean ± SD) [4, 21]: 154 ± 85 pg/mL
Luteal phase serum progesterone level (mean ± SD) [5, 6]: 0.9 ± 0.7 ng/mL
Luteal phase serum progesterone level (mean ± SD) [5, 7]: 0.7 ± 0.3 ng/mL
Luteal phase serum progesterone level (mean ± SD) ([5]; Day 0, buserelin 100 μg/day IN): 1.1 ± 0.4 ng/mL
Luteal phase serum progesterone level (mean ± SD) [5, 8]: 1.3 ± 0.8 ng/mL
Luteal phase serum progesterone level (mean ± SD) [5, 9]: 0.9 ± 0.2 ng/mL
Luteal phase serum progesterone level (mean ± SD) ([5]; Day 1, buserelin 100 μg/day IN): 1.2 ± 0.3 ng/mL
Luteal phase serum progesterone level (mean ± SD) [5, 10]: 7.6 ± 3.2 ng/mL
Luteal phase serum progesterone level (mean ± SD) [5, 11]: 5.1 ± 2.0 ng/mL
Luteal phase serum progesterone level (mean ± SD) ([5]; Day 4, buserelin 100 μg/day IN): 6.2 ± 2.3 ng/mL
Luteal phase serum progesterone level (mean ± SD) [5, 12]: 11.7 ± 4.6 ng/mL
Luteal phase serum progesterone level (mean ± SD) [5, 13]: 11.5 ± 3.6 ng/mL
Luteal phase serum progesterone level (mean ± SD) ([5]; Day 7, buserelin 100 μg/day IN): 13.9 ± 2.9 ng/mL
Luteal phase serum progesterone level (mean ± SD) [5, 14]: 8.2 ± 6.4 ng/mL
Luteal phase serum progesterone level (mean ± SD) [5, 15]: 10.8 ± 6.6 ng/mL
Luteal phase serum progesterone level (mean ± SD) ([5]; Day 9, buserelin 100 μg/day IN): 16.2 ± 7.5 ng/mL
Luteal phase serum progesterone level (mean ± SD) [5, 16]: 8.3 ± 6.5 ng/mL
Luteal phase serum progesterone level (mean ± SD) [5, 17]: 10.0 ± 3.7 ng/mL
Luteal phase serum progesterone level (mean ± SD) [5, 18]: 14.1 ± 3.3 ng/mL
Luteal phase serum progesterone level (mean ± SD) [5, 19]: 5.8 ± 4.7 ng/mL
Luteal phase serum progesterone level (mean ± SD) [5, 20]: 3.3 ± 2.4 ng/mL
Luteal phase serum progesterone level (mean ± SD) [5, 21]: 8.4 ± 4.3 ng/mL
